Laboratory results published in ChEMBL document CHEMBL1121458, “Benzenesulfenamides as antihypertensive agents. Substituted piperidine and 1-arylpiperazine derivatives” (1980).

Legend:
Type in all cases: functional
Rattus norvegicus [1] = assay: Antihypertensive activity was measured for systolic pressure using spontaneous hypertensive rats (SHR) at 50 mg/kg after oral administration
Rattus norvegicus [2] = assay: Antihypertensive activity was measured for systolic pressure using spontaneous hypertensive rats (SHR) at 25 mg/kg after oral administration
Rattus norvegicus [3] = assay: Antihypertensive activity was measured for systolic pressure using spontaneous hypertensive rats (SHR) at 10 mg/kg after oral administration
Rattus norvegicus [4] = assay: Antihypertensive activity was measured for systolic pressure using spontaneous hypertensive rats (SHR) at 50 mg/kg

Structure (SMILES)	Change in systolic pressure (Rattus norvegicus [1]) [mmHg]	Change in systolic pressure (Rattus norvegicus [2]) [mmHg]	Change in systolic pressure (Rattus norvegicus [3]) [mmHg]	Change in systolic pressure (Rattus norvegicus [4]) [mmHg]
Clc1ccccc1N1CCN(Sc2ccccc2)CC1	28			
Cc1ccccc1N1CCN(Sc2ccccc2)CC1	8			
Clc1ccc(N2CCN(Sc3ccccc3)CC2)cc1	44	23.5		
Brc1ccc(OC2CCN(Sc3ccccc3)CC2)cc1	-15			
O=C(c1ccccc1)C1CCN(Sc2ccccc2)CC1		-14		
COc1ccccc1N1CCN(Sc2ccccc2)CC1	71	27		
c1ccc(SN2CCC3(CC2)OC(c2ccccc2)c2ccccc23)cc1 (stereo not drawn)	-66	-44		
Cc1cccc(N2CCN(Sc3ccccc3)CC2)c1			16	
COc1cccc(N2CCN(Sc3ccccc3)CC2)c1	35			
COc1ccc(N2CCN(Sc3ccccc3)CC2)cc1		7		
[O-][S+](c1ccccc1)N1CCN(c2ccccn2)CC1 (stereo not drawn)	80	59	36	
c1ccc(SN2CCN(c3ccccc3)CC2)cc1		90	16.5	
FC(F)(F)c1cccc(N2CCN(Sc3ccccc3)CC2)c1	6			
c1ccc(SN2CCC(c3ccccc3)CC2)cc1	-9			
c1ccc(CN2CCN(Sc3ccccc3)CC2)cc1	17	23		
c1ccc(SN2CCN(c3ccccn3)CC2)cc1	40	65		
[O-][S+](c1ccccc1)N1CCN(c2ccccc2)CC1 (stereo not drawn)	83	42	22	
Cc1ccc(C(=O)C2CCN(Sc3ccccc3)CC2)cc1	7			
c1ccc(COC2(c3ccccc3)CCN(Sc3ccccc3)CC2)cc1				2
O=S(=O)(c1ccccc1)N1CCN(c2ccccn2)CC1	5			
O=S(=O)(c1ccccc1)N1CCN(c2ccccc2)CC1	26	33		
N=C(N)NCCN1CCCCCCC1 [GUANETHIDINE]			34	
